pIC50: −log10 of the molar value. Read-outs that look alike come from different tables or passages of the source.
Legend:
[1] = target: T1, protein:farnesyl transferase (PFT), SF9 affinity purified rat FPT (Rattus norvegicus, UniProt Q02293+Q04631); test: PFT (FPT) inhibitory activity, radiolabeled farnesyl pyrophosphate / biotinyl peptide streptavidin bead assay; assay type: biochemical
T1 construct: made in house
Protocol: The pharmaceutical utility of compounds of this invention was established by the following standard assay which measures inhibition of the enzyme protein:farnesyl transferase (PFT), also referred to as farnesyl protein transferase (FPT).
The PFT (or FPT) inhibitory activity of compounds of the present invention was assayed in HEPES buffer (pH 7.4) containing 5 mM potassium phosphate and 20 μM ZnCl2. The solution also contained 5 mM DTT (dithiothreitol), 5 mM MgCl2, and 0.1% PEG 8000. Assays were performed in 96 well plates (Wallec) and employed solutions composed of varying concentrations of a compound of the present invention in 10% DMSO (dimethylsulfoxide). Upon addition of both substrates, radiolabeled farnesyl pyrophosphate ([1^3H], specific activity 15-30 Ci/mmol, final concentration 134 nM) and (biotinyl)-Ahe-Thr-Lys-Cys-Val-Ile-Met ([3aS[3a alpha, 4 beta, 6a alpha]-hexahydro-2-oxo-1H-thieno[3,4-d]imidazole-5-pentanoic acid]-[7-aminoheptanoic acid]-Thr-Lys-Cys-Val-Ile-Met) (Ahe is 7-aminoheptanoic acid, Thr is threonine, Lys is lysine, Cys is cysteine, Val is valine, Ile is isoleucine, and Met is methionine) (final concentration 0.2 μM), the enzyme reaction was started by addition of SF9 affinity purified rat FPT. After incubation at 30° C. for 30 minutes, the reaction was terminated by diluting the mixture 2.5-fold with a stop buffer containing 1.5 M magnesium acetate, 0.2 M H3PO4, 0.5% BSA (bovine serum albumin), and strepavidin beads (Amersham) at a concentration of 1.3 mg/mL. After allowing the plate to settle for 30 minutes at room temperature, radioactivity was quantitated on a microBeta counter (Model 1450, Wallec). The assay was also carried out without 5 mM potassium phosphate.

[2] = tested on: human lung carcinoma with K-ras mutation and p53 deletion; conditions: nude mice; cited from earlier work
[3] = tested on: EJ-1 human bladder carcinoma, HT18O human fibrosarcoma, and human colon carcinoma xenografts; conditions: 100 mg/kg; xenografts in nude mice; cited from earlier work
[4] = tested on: mammary and salivary carcinomas; conditions: daily administration; ras transgenic mice; cited from earlier work
[5] = HEPES buffer pH 7.4 without 5 mM potassium phosphate, read-out: IC50 (μm) Hepes
[6] = HEPES buffer pH 7.4 with 5 mM potassium phosphate, read-out: IC50 (μm) Hepes ± 5 mM Phosphate

pIC50 [1, 5]	pIC50 [1, 6]	Structure (SMILES)	also measured
9.52	–	N#Cc1ccc(Cn2cncc2CCOc2ccc3c(c2CCc2ccccc2)CCCC3=O)cc1 [Compound 4, 4-{[5-(2-{[5-oxo-1-(2-phenylethyl)-5,6,7,8-tetrahydro-2-naphthalenyl]oxy}ethyl)-1H-imidazol-1-yl]methyl}benzonitrile]	–
5.86	6.06	CCCc1c(OCCc2cncn2Cc2ccccc2)ccc2c1CCCC2=O [Compound 2, 6-[2-(3-benzyl-3H-imidazol-4-yl)-ethoxy]-5-propyl-3,4-dihydro-2H-naphthalen-1-one]	–
–	–	CSCC[C@H](NC(=O)c1ccc(NC[C@@H](N)CS)cc1-c1ccccc1)C(=O)O [FTI276]	tumor growth [2]: selectively block tumor growth
9.30	–	CC(C)S(=O)(=O)Cc1c(OCCc2cncn2Cc2ccc(C#N)cc2)ccc2c1CCCC2=O [Compound 29, 4-({5-[2-({1-[(isopropylsulfonyl)methyl]-5-oxo-5,6,7,8-tetrahydro-2-naphthalenyl}oxy)ethyl]-1H-imidazol-1-yl}methyl)benzonitrile]	–
9.52	–	N#Cc1ccc(Cn2cncc2CCOc2ccc3c(c2CS(=O)(=O)c2ccccn2)CCCC3=O)cc1 [Compound 28, 4-({5-[2-({5-oxo-1-[(2-pyridinylsulfonyl)methyl]-5,6,7,8-tetrahydro-2-naphthalenyl}oxy)ethyl]-1H-imidazol-1-yl}methyl)benzonitrile]	–
7.14	7.28	O=C1CCCc2c1ccc(OCCc1cncn1Cc1ccccc1)c2CCc1ccccc1 [Compound 3, 6-[2-(3-benzyl-3H-imidazol-4-yl)-ethoxy]-5-phenethyl-3,4-dihydro-2H-naphthalen-1-one]	–
–	–	COC(=O)[C@H](CCSC)NC(=O)[C@H](/C=C\[C@@H](/C=C/[C@@H](N)CS)C(C)C)Cc1ccccc1 [Compound B1086]	tumor growth inhibition [3]: inhibit tumor growth
–	–	CC[C@H](C)[C@@H](CO[C@@H](Cc1ccccc1)C(=O)N[C@@H](CCS(C)(=O)=O)C(=O)OC(C)C)NC[C@@H](N)CS [L-744,832]	tumor regression [4]: caused tumor regression
7.62	7.66	COc1ccc(Cn2cncc2CCOc2ccc3c(c2)CCCC3=O)cc1C [Compound 12, 6-{2-[3-(4-methoxy-3-methyl-benzyl)-3H-imidazol-4-yl]-ethoxy}-3,4-dihydro-2H-naphthalen-1-one]	–
